# Measured values from PMC10648541, “Design, Synthesis, and Antiproliferative Activity of Selective Histone Deacetylases 6 Inhibitors Containing a Tetrahydropyridopyrimidine Scaffold” (Molecules, 2023).
# Columns and labels:
# Type in all cases: cell-based
# U251 = experiment: NCI-60 antiproliferative screening, U251; conditions: Homo sapiens, U-251, U251 (CNS Cancer), read-out: Inhibition% values at 10 μM concentration
# Source text: (§1) Then, 8f was submitted to NCI for antiproliferative evaluation against 59 different tumor cell lines. The cancer types of the NCI-60 program include leukemia, non-small cell lung cancer (NSCLC), colon cancer, CNS cancer, melanoma, ovary cancer, renal cancer, prostate cancer, and breast cancer.
# NCI-H226 = experiment: NCI-60 antiproliferative screening, NCI-H226; conditions: Homo sapiens, NCI-H226 (Non-Small Cell Lung Cancer), read-out: Inhibition% values at 10 μM concentration
# Source text: as §1
# EKVX = experiment: NCI-60 antiproliferative screening, EKVX; conditions: Homo sapiens, EKVX (Non-Small Cell Lung Cancer), read-out: Inhibition% values at 10 μM concentration
# Source text: as §1
# OVCAR-4 = experiment: NCI-60 antiproliferative screening, OVCAR-4; conditions: Homo sapiens, OVCAR-4 (Ovarian Cancer), read-out: Inhibition% values at 10 μM concentration
# Source text: as §1
smiles,measurement,setting,value
"COc1cccc(-c2nc3c(c(-c4cccc(OC)c4)n2)CCN(C(=O)CCCCCCC(=O)NO)C3)c1 [Compound 8f, 8-(2,4-Bis(3-methoxyphenyl)-5,8-dihydropyrido [3,4-d]pyrimidin-7(6H)-yl)-N-hydroxy-8-oxooctanamide]",inhibition at 10 µM,U251,100%
same,inhibition at 10 µM,NCI-H226,93.3%
same,inhibition at 10 µM,EKVX,84.4%
same,inhibition at 10 µM,OVCAR-4,67.1%
